Assay results published in patent US10507208B2, “Compositions, packaged pharmaceuticals, and methods of using hedgehog pathway modulators for the sensitization of resistant tumors” (priority 2015, dated 2019).

Legend:
Assay type in all cases: cell-based
[1] = system: H295 (adrenal cortical carcinoma) cells; experiment: MTT assay, sensitization to vincristine or docetaxel in H295 cells; conditions: vincristine or docetaxel plus sensitizer at 10, 1 or 0.1 micromolar, versus chemotherapy alone, FIGS. 10A-10H
Experimental: (§1) Cancer cells grown in vitro are treated with chemotherapy drugs alone or simultaneously with a hedgehog pathway modulator, including itraconazole. The difference in cell death between cells treated with chemotherapy drugs alone or in simultaneous treatment with the hedgehog pathway modulators determines the degree of synergistic killing effect of the combination therapy.
(§2) Cell culture: The H295 cell line was grown in DMEM (Dulbecco's Modified Eagles Medium), supplemented with insulin, transferring, and selenium, 10% Fetal bovine serum, and gentamicin. The Kelly cell line was grown in DMEM, supplemented with 10% Fetal bovine serum, and gentamicin. Cell-based experiments were conducted in a 37 degree incubator supplemented with 5% carbon dioxide.
(§3) In vitro Pharmacology: H295 cells were plated in a 96-well dish at a density of 10000 cells per well and Kelly cells were plated at a density of 2000 cells per well. After 16 hours, cells were treated with 2-fold dilutions of vincristine (VCR) or docetaxel (DTX).
(§4) MTT Assay: Drug containing media from all of the dishes were discarded and MTT solution was added at a concentration of 5 micrograms per ml. The dishes were returned to the incubator for 4 hours.

[2] = system: Kelly (neuroblastoma) cells; experiment: MTT assay, sensitization to vincristine or docetaxel in Kelly cells; conditions: vincristine or docetaxel plus sensitizer at 10, 1 or 0.1 micromolar, versus chemotherapy alone, FIGS. 10A-10H
Experimental: as §1, §2, §3, §4

[3] = system: HeLa (cervical cancer) cells; experiment: MTT assay, sensitization to vincristine or docetaxel in HeLa cells; conditions: HeLa cells (pre-exposed to chemotherapy, second-line model); sensitizer 10, 1 or 0.1 micromolar; FIGS. 10I-10L

## CC1=C2C[C@H]3[C@@H](CC=C4C[C@@H](O)CC[C@@]43C)[C@@H]2CC[C@]12O[C@@H]1C[C@H](C)CN[C@H]1[C@H]2C [cyclopamine]
[1]
  concentration of chemotherapy necessary to stop proliferation as well as kill half of the amount of cells (IC50): remains less than concentration of chemotherapy alone
[2]
  concentration of chemotherapy necessary to stop proliferation as well as kill half of the amount of cells (IC50): remains less than concentration of chemotherapy alone
[3]
  sensitization to vincristine and docetaxel: did not respond
